Here are results for 23 compounds from ChEMBL document CHEMBL3352400, “4-Functionalized 1,3-diarylpyrazoles bearing 6-aminosulfonylbenzothiazole moiety as potent inhibitors of carbonic anhydrase isoforms hCA I, II, IX and XII” (Bioorg Med Chem, 2014).

One test addresses Carbonic anhydrase 9 (Homo sapiens, UniProt Q16790). As to the kind of experiment: Inhibition of human carbonic anhydrase 9 by stopped flow CO2 hydrase assay method.
In a further test the target is Carbonic anhydrase 12 (Homo sapiens, UniProt O43570). As to the kind of experiment: Inhibition of human carbonic anhydrase 12 by stopped flow CO2 hydrase assay method.
Another test deals with Carbonic anhydrase 1 (Homo sapiens, UniProt P00915). The test is described as follows: Inhibition of human carbonic anhydrase 1 by stopped flow CO2 hydrase assay method.

Bounds are passed on as bounds.

Chain of Carbonic anhydrase 1 (P00915 whole entry): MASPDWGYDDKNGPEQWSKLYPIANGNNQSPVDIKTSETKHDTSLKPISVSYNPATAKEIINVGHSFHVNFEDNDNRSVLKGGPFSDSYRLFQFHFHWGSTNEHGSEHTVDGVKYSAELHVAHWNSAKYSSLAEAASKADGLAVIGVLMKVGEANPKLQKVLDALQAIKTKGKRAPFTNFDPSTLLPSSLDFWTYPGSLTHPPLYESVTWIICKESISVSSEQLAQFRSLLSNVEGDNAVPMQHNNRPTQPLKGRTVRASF
Chain of Carbonic anhydrase 12 (O43570 whole entry): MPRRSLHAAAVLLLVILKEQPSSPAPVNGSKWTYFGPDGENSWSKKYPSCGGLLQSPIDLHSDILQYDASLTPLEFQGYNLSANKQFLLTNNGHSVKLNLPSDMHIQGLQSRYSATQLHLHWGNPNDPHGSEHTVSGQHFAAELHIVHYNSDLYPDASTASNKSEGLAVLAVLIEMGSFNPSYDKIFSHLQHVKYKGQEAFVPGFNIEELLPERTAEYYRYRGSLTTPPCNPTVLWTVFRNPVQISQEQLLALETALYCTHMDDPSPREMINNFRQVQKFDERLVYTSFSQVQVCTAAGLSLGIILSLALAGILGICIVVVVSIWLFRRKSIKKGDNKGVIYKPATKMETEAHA

On Carbonic anhydrase 9, `Cc1ccc(-c2nn(-c3nc4ccc(S(N)(=O)=O)cc4s3)cc2C(=O)O)cc1` yielded an inhibition constant Ki of 0.109 µM. The same measure, in the same setting: in the case of `NS(=O)(=O)c1ccc2nc(-n3cc(C=O)c(-c4ccccc4)n3)sc2c1` it was 1.75 µM; in that of `Cc1ccc(-c2nn(-c3nc4ccc(S(N)(=O)=O)cc4s3)cc2C=O)cc1`, 0.699 µM.

For the compound `COc1ccc(-c2nn(-c3nc4ccc(S(N)(=O)=O)cc4s3)cc2C=O)cc1`, the affinity at Carbonic anhydrase 9 corresponds to a Ki of 0.229 µM. Regarding `NS(=O)(=O)c1ccc2nc(-n3cc(C=O)c(-c4ccc(F)cc4)n3)sc2c1`, the inhibition constant Ki on Carbonic anhydrase 12 is above 10 µM. `NS(=O)(=O)c1ccc2nc(-n3cc(C=O)c(-c4ccc(Cl)cc4)n3)sc2c1` came in with a Ki at Carbonic anhydrase 9 of 1.69 µM. Same read-out and setting: in the case of `NS(=O)(=O)c1ccc2nc(-n3cc(C=O)c(-c4ccc([N+](=O)[O-])cc4)n3)sc2c1` it was 2.11 µM; in that of `NS(=O)(=O)c1ccc2nc(-n3cc(C(=O)O)c(-c4ccccc4)n3)sc2c1`, 0.752 µM; in that of `COc1ccc(-c2nn(-c3nc4ccc(S(N)(=O)=O)cc4s3)cc2C(=O)O)cc1`, 0.842 µM. As to `NS(=O)(=O)c1ccc2nc(-n3cc(C(=O)O)c(-c4ccc(F)cc4)n3)sc2c1`, affinity on Carbonic anhydrase 9 was put at a Ki of 0.0624 µM. On the same count and under the same terms, in the case of `NS(=O)(=O)c1ccc2nc(-n3cc(C(=O)O)c(-c4ccc(Cl)cc4)n3)sc2c1` it was 0.0028 µM; in that of `NS(=O)(=O)c1ccc2nc(-n3cc(C(=O)O)c(-c4ccc([N+](=O)[O-])cc4)n3)sc2c1`, 0.0604 µM; in that of `N#Cc1cn(-c2nc3ccc(S(N)(=O)=O)cc3s2)nc1-c1ccccc1`, 0.0816 µM. `Cc1ccc(-c2nn(-c3nc4ccc(S(N)(=O)=O)cc4s3)cc2C#N)cc1`: the Ki was 0.186 µM at Carbonic anhydrase 9 and above 50 µM on Carbonic anhydrase 1. For `COc1ccc(-c2nn(-c3nc4ccc(S(N)(=O)=O)cc4s3)cc2C#N)cc1`, the inhibition constant Ki on Carbonic anhydrase 9 was 0.111 µM; on Carbonic anhydrase 1 it was above 50 µM.

On Carbonic anhydrase 9, `N#Cc1cn(-c2nc3ccc(S(N)(=O)=O)cc3s2)nc1-c1ccc(F)cc1` yielded an inhibition constant Ki of 0.739 µM. In the case of `N#Cc1cn(-c2nc3ccc(S(N)(=O)=O)cc3s2)nc1-c1ccc(Cl)cc1`, the results for the Ki at Carbonic anhydrase 9 and at Carbonic anhydrase 1 were 0.224 µM and above 50 µM, respectively.

On to `N#Cc1cn(-c2nc3ccc(S(N)(=O)=O)cc3s2)nc1-c1ccc([N+](=O)[O-])cc1`, for which the inhibition constant (Ki) at Carbonic anhydrase 9 is 0.854 µM; on Carbonic anhydrase 1, above 50 µM. In the case of `NS(=O)(=O)c1ccc2nc(-n3cc(/C=N/O)c(-c4ccccc4)n3)sc2c1`, on Carbonic anhydrase 9, the affinity corresponds to a Ki of 0.114 µM. Still for that read-out and setting: as for `Cc1ccc(-c2nn(-c3nc4ccc(S(N)(=O)=O)cc4s3)cc2/C=N/O)cc1`, the figure is 0.134 µM.

For the compound `COc1ccc(-c2nn(-c3nc4ccc(S(N)(=O)=O)cc4s3)cc2/C=N/O)cc1`, the Ki on Carbonic anhydrase 9 is 0.0916 µM; on Carbonic anhydrase 1, above 50 µM. Take `NS(=O)(=O)c1ccc2nc(-n3cc(/C=N/O)c(-c4ccc(F)cc4)n3)sc2c1`: on Carbonic anhydrase 9, the inhibitory constant (Ki) amounted to 0.224 µM. The same measure, in the same setting: in the case of `NS(=O)(=O)c1ccc2nc(-n3cc(/C=N/O)c(-c4ccc(Cl)cc4)n3)sc2c1` it was 0.152 µM.

A word on the Ki: it is a measure of affinity in units of concentration, obtained from inhibition or displacement. A higher Ki goes with weaker binding.
